Consider one compound from patent publication US10945994B2, “Combinations comprising a pyrrolidine-2,5-dione IDO1 inhibitor and an anti-body” (Pfizer Inc., priority 2015, dated 2021).

For one data set, the target named is mouse TDO2 (Mus musculus (Mouse), UniProt P48776). Put plainly: TDO2 activity assay in P815 mouseTDO2 clone 12 cells. Type of data set: cell-based. As for the experimental part:
P815 mTDO2 c112 cells were generated as described in Pilotte et al, Proc Natl Acad Sci, 109(7): 2497-2502 (2012). They were seeded in 96-well plates (50,000 cells/well), treated with increasing concentrations of compounds and incubated for 16-18 h. Kynurenine concentrations were determined as described above. The reaction was run with single replicate.

Data set [1] in a line: Passive permeability in RRCK cells. Format: in vitro ADME, canine. As to conditions: dog, MDCK, read-out: intrinsic permeability, apical to basolateral (A to B). As for the experimental part:
In vitro Absorption: passive permeability was evaluated in Ralph-Russ canine kidney (RRCK) cells; high intrinsic permeability with an apical to basolateral (A to B) value of 25.5×10^−6 cm/sec. CNS Penetration: CNS distribution was investigated in male rats.

A further data set has as its target IDO1 (Homo sapiens (Human), UniProt P14902). Nature of the data set: IDO1 enzymatic activity by mass spectrometry assay. Type of data set: biochemical. Conditions: human enzyme; varied tryptophan and inhibitor concentrations. On the procedure: The full length complementary deoxyribonucleic acid (cDNA) for human IDO1 was cloned into a pFastbac-1 based vector and the full length cDNA for mouse and dog was cloned into a pET24a based vector. […] Human IDO1 was expressed in insect cells and purified using Ni affinity column. The mouse and dog IDO1 were expressed in Escherichia coli BL21 (DE3) and purified using a Ni affinity column. To obtain non-tagged, pure, and hemin loaded IDO1, TEV protease treated and tag removed protein was incubated with 10× molar ratio of hemin (dissolved in 25 mM NaOH) to protein at 4° C. overnight followed by size exclusion chromatography (SEC) for human IDO1 and anion exchange and SEC for mouse and dog IDO1.
The inhibition of human, dog and mouse IDO1 was measured by quantitating tryptophan and the generation of kynurenine by MS. […] The HCl stops the enzyme reactions and also converts the N-formyl kynurenine to kynurenine. […] Detection of tryptophan and kynurenine was accomplished following injection of assay reaction (injection loop volume is 10 μL) onto an Agilent Graphite Type D cartridge in 0.01% trifluoroacetic acid (TFA) plus 0.09% formic acid and eluted using 80% acetonitrile, 0.09% formic acid and 0.01% TFA. […]

A further data set addresses TDO2 (Homo sapiens (Human), UniProt P48775). Put plainly: TDO2 activity assay in A172 and THP-1 cells. Type of data set: cell-based. As for the experimental part:
A172 cells were seeded in 96-well plates (12500 cells/well), treated with increasing concentrations of compounds and incubated for 16-18 h at 37° C., 5% CO2. Then TCA was added to the supernatant to stop the reaction. […] Kynurenine concentrations were determined by measuring absorbance at 480 nm. The reaction was run with single replicate.
THP-1 cells were stimulated with 2 ng/ml PMA for 24 h, then seeded in 96-well plates (100,000 cells/well), treated with 2 ng/ml PMA and increasing concentrations of compounds, and incubated for 24 h. Kynurenine concentrations were determined as described above. The reaction was run with single replicate.

Chain of TDO2 (P48775 whole entry): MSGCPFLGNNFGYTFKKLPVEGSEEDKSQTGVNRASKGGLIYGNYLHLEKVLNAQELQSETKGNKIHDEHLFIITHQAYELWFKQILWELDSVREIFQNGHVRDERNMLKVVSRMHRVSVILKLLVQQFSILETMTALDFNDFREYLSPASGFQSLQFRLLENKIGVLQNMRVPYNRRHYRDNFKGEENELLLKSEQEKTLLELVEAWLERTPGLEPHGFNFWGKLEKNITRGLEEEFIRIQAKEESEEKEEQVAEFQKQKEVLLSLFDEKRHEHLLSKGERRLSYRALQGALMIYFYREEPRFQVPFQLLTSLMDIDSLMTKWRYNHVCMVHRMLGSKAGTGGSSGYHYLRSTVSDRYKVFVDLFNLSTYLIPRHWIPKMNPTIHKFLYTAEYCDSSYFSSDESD
Chain of IDO1 (P14902 whole entry): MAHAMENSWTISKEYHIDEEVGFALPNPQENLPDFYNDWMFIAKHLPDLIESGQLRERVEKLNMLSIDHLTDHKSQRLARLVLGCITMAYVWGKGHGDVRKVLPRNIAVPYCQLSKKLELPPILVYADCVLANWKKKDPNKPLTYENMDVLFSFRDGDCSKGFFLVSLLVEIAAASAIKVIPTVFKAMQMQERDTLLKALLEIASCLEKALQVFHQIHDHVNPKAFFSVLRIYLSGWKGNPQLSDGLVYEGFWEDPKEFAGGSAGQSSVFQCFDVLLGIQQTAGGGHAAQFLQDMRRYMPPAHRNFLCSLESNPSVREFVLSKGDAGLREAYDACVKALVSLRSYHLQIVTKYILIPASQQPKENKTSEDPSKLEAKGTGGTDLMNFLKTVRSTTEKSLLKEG
Chain of mouse TDO2 (P48776 whole entry): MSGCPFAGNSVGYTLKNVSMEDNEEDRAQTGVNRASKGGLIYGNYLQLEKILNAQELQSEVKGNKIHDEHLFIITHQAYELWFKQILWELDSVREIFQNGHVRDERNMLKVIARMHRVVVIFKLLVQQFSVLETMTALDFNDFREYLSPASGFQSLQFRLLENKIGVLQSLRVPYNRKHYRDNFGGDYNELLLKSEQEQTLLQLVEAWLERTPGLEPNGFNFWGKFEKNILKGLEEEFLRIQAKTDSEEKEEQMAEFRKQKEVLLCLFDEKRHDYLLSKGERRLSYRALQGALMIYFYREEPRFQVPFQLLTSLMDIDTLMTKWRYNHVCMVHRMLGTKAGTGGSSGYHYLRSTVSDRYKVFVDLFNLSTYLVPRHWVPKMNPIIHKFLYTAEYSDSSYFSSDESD

At mouse TDO2, `O=C1CC(c2c[nH]c3ccc(F)cc23)C(=O)N1` (racemic) [Compound 1, 3-(5-fluoro-1H-indol-3-yl)pyrrolidine-2,5-dione] came in with an IC50 greater than 50 µM. In addition, the Papp A→B in data set [1] came out at 25.5 ×10⁻⁶ cm/s. Further, on IDO1, the “mechanism of inhibition, preferred model fit” value is given as “uncompetitive inhibition”. Further, the “A172 and THP-1 cells TDO2 inhibition” value at TDO2 (@50 μM) is “no inhibition”. At TDO2 (human biochemical and cellular, murine cellular, concentrations of up to 50 μM), the “inhibitory activity in any of the human or mouse TDO2 assays” value was “did not display any significant inhibitory activity”.
